# Measurements from patent US20200247855A1, “THERAPY AND DIAGNOSTICS” (OXFORD UNIVERSITY INNOVATION LIMITED, priority 2017, published 2020).
# No end group written: not given here.
# Tests used:
# [1] = target: T1, His-tagged P672-biotinylated CCL3 interaction (Homo sapiens, UniProt P10147); test: AlphaScreen disruption of P672:chemokine interaction; assay type: binding; conditions: AlphaScreen dose-response
# T1 construct: host or cells: P672: HEK293F (in-house); biotinylated CCL3: not described
# T1 sequence (P10147 24-92): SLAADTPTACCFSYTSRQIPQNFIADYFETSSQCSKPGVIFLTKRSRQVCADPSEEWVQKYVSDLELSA
# Method: (§1) B-D. Effect of indicated peptides at a concentration of 100 μM on a His-tagged P672-biotinylated CCL8, CCL2 or CCL3 interaction respectively using an AlphaScreen assay. In each panel. […] Data are presented as mean±s.e.m. of three independent experiments, shown as individual data points.
# (§2) Data are shown as mean of two technical replicates. Curves were fitted with 4 parameters to estimate IC50.
# (§3) The binding of these peptides to CCL8 was assayed by examining their ability to disrupt the P672:CCL8 interaction using an AlphaScreen assay (FIG. 20E, H). […] BK1 derivatives were tested for their ability to inhibit P672 interactions with CCL2 and CCL3 using AlphaScreen (FIG. 20 F, G, I, J).
# (§4) AlphaScreen® Histidine detection kit was purchased from PerkinElmer (6760619M lot: 2457886) and the assay was set up in white bottom Proxiplate™ 384 Plus microplates (PerkinElmer) following the manufacturer's instructions. The assay buffer used was 50 mM HEPES, 150 mM NaCl, 0.1% BSA, 0.01% Tween20, 1% DMSO, pH 7.5 and the final volume in each well was 20 μL. Briefly, biotinylated chemokine (recombinant, final concentration 1.25 nM (CCL8), 5 nM (CCL2) and 2.5 nM (CCL3)) was pre-incubated at room temperature for 15 min with different concentrations of each peptide. His-tagged P672 (final concentration 2.5 nM (CCL8), 5 nM (CCL2) and 1.25 nM (CCL3)) was then added to each well and the plate was incubated at room temperature for 30 min. Finally, acceptor and donor beads were added as a 1:1 suspension in buffer to each well and the plate was further incubated at RT for 1 h. Data was obtained by reading the plate using a Pherastar FSX plate reader (excitation 680 nm, emission 570 nm) and was analysed using GraphPad Prism.
# [2] = target: T2, His-tagged P672-biotinylated CCL2 interaction (Homo sapiens, UniProt P13500); test: as above; assay type: binding
# T2 construct: host or cells: P672: HEK293F (in-house); biotinylated CCL2: not described
# T2 sequence (P13500 24-99): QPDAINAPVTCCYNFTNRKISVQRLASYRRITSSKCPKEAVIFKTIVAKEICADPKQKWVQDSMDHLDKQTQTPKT
# Method: as §1, §2, §3, §4
# CCL8 homodimer = target: T3, CCL8 homodimer (Homo sapiens, UniProt P80075); test: Native mass spectrometry of CCL8 with peptide; conditions: 1:1 CCL8 monomer:BK1.1
# T3 construct: purchased Peprotech (UK)
# T3 sequence (P80075 24-99): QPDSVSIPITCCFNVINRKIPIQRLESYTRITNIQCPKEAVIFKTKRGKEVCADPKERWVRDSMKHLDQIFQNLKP
# Method: Mid panel: In-solution dissociation of CCL8 dimer and further binding of CCL8 to one and two BK-1. Confirmation of CCL8/BK-1 complex by HCD gas-phase dissociation of isolated precursor ions: Bottom panel, left: 2217 m/z corresponding to CCL8/BK-1 (1:1) and Bottom panel, […]: 2555 m/z corresponding to CCL8/BK-1 (1:2). Buffers contained up to 0.5% DMSO. All analyses were performed in triplicate.
# Samples were analysed using a modified Q-Exactive mass spectrometer (Thermo Fisher Scientific) for high-mass range measurements (Gault, J. et al., Nature methods [2016]). CCL8 was buffered exchanged into 200 mM ammonium acetate solution (pH=6.5). […] In all cases no more than 0.5% DMSO was present in the final mixture, and a control sample of CCL8 homodimer containing 0.5% DMSO was also analysed. Instrumental parameters were set to: capillary voltage of 1.2 KV, source temperature of 50° C. and 60 V of source induced dissociation (SID). Gas phase dissociation was carried out by applying 35 and 55 V of higher-energy collisional dissociation (HCD) to the most intense charge state after isolation (25 m/z window). Spectra was acquired using a mass resolution of 60,000 for both precursor and dissociated product ions. All measurements were done in triplicates.
substance,measurement,setting,value
EDEDYEDFFKPVTAYF-NH2 [BK1.1],Inhibition of P672 interaction with CCL3 (BK1 derivatives),[1],did not inhibit
same,Inhibition of P672 interaction with CCL2 (BK1 derivatives),[2]; AlphaScreen dose-response,did not inhibit
same,Disruption of the P672-CCL2 interaction,"[2]; AlphaScreen, peptide 100 μM",disrupted
same,Effect on CCL8 homodimerization,CCL8 homodimer,disrupt CCL8 homodimerization
